Measured values: patent US8846949B2, “Pyrrolopyrazoles as N-type calcium channel blockers” (Janssen Pharmaceutica NV, priority 2012, dated 2014)

Molecular target: T1, N-type calcium channel α1B (Cav2.2), β3 and α2δ subunits (Homo sapiens, UniProt Q00975)
T1 construct: expressed in transfected cells
Experiment: Functional assay, antagonism of N-type calcium channel (FDSS calcium mobilization response to KCl depolarization)
Assay type: cell-based
Details: for inhibition at 0.33 µM: 0.33 μM compound; for inhibition at 0.33 µM / inhibition at 1 µM: FDSS, 50 mM KCl; for IC50: HEK stable cell line, 50 mM KCl depolarization, six-point concentration-response; for inhibition at 1 µM: 1 μM compound
Description: A stable cell line (HEK parent) co-expressing the α1B (Cav2.2), β3 and α2δ subunits of the N-type calcium channel subunits was used. These cells were routinely grown as monolayers in low glucose-containing Dulbecco's Modified Eagle Medium supplemented with 10% FBS, 2 mM L-glutamine, 100 I.U./mL penicillin, 100 μg/mL streptomycin, 400 μg/mL G418 and 200 μg/mL Zeocin (split ratio=1:5). Cells were maintained in 5% CO2 at 37° C. Compounds of Formula (I) were prepared as 10 mM stocks in DMSO from neat compound, if available. Otherwise, the 5 or 10 mM DMSO stock solutions provided in-house were used.
Calcium mobilization responses to KCl depolarization were evaluated by measuring the intensity of calcium-mediated fluorescent signal in the presence of BD Calcium Assay Dye (BD Biosciences, Franklin Lakes, N.J., U.S.A.), utilizing a Functional Drug Screening System (FDSS) by Hamamatsu Corporation (Bridgewater, N.J. U.S.A.).
Twenty-four hr prior to assay, cells were seeded in clear-base poly-D-lysine-coated 384-well plates (BD Biosciences) at a density of 5,000 cells per well in culture medium and grown overnight in 5% CO2 at 37° C. On the day of assay, growth media were removed, and cells were loaded with BD calcium assay dye (BD Biosciences) for 35 min at 37° C. under 5% CO2 and then for 25 min at room temp. Utilizing the FDSS, cells were exposed to representative compounds of Formula (I) at varying concentrations, and intracellular calcium was measured for 5 min prior to the addition of 50 mM KCl for an additional 3 min of measurement.
IC50 values for representative compounds of Formula (I) were determined from six-point concentration-response experiments and represent the concentration of said compound required to inhibit 50% of the maximal response. Maximal fluorescence intensity (FI) achieved upon addition of 50 mM KCl was exported from the FDSS software and further analyzed using GraphPad Prism 3.02 (Graph Pad Software Inc., San Diego, Calif., U.S.A.). Data were normalized to the maximum average counts from quadruplicate wells for each condition in the presence of 50 mM KCl and to the minimum average counts in the presence of buffer. Theoretical curves were generated using nonlinear regression curve-fitting analysis of either sigmoidal concentration-response or sigmoidal concentration-response (variable slope), and the IC50 values with the best-fit curve determined by GraphPad Prism were reported.

T1 sequence (Q00975 whole entry): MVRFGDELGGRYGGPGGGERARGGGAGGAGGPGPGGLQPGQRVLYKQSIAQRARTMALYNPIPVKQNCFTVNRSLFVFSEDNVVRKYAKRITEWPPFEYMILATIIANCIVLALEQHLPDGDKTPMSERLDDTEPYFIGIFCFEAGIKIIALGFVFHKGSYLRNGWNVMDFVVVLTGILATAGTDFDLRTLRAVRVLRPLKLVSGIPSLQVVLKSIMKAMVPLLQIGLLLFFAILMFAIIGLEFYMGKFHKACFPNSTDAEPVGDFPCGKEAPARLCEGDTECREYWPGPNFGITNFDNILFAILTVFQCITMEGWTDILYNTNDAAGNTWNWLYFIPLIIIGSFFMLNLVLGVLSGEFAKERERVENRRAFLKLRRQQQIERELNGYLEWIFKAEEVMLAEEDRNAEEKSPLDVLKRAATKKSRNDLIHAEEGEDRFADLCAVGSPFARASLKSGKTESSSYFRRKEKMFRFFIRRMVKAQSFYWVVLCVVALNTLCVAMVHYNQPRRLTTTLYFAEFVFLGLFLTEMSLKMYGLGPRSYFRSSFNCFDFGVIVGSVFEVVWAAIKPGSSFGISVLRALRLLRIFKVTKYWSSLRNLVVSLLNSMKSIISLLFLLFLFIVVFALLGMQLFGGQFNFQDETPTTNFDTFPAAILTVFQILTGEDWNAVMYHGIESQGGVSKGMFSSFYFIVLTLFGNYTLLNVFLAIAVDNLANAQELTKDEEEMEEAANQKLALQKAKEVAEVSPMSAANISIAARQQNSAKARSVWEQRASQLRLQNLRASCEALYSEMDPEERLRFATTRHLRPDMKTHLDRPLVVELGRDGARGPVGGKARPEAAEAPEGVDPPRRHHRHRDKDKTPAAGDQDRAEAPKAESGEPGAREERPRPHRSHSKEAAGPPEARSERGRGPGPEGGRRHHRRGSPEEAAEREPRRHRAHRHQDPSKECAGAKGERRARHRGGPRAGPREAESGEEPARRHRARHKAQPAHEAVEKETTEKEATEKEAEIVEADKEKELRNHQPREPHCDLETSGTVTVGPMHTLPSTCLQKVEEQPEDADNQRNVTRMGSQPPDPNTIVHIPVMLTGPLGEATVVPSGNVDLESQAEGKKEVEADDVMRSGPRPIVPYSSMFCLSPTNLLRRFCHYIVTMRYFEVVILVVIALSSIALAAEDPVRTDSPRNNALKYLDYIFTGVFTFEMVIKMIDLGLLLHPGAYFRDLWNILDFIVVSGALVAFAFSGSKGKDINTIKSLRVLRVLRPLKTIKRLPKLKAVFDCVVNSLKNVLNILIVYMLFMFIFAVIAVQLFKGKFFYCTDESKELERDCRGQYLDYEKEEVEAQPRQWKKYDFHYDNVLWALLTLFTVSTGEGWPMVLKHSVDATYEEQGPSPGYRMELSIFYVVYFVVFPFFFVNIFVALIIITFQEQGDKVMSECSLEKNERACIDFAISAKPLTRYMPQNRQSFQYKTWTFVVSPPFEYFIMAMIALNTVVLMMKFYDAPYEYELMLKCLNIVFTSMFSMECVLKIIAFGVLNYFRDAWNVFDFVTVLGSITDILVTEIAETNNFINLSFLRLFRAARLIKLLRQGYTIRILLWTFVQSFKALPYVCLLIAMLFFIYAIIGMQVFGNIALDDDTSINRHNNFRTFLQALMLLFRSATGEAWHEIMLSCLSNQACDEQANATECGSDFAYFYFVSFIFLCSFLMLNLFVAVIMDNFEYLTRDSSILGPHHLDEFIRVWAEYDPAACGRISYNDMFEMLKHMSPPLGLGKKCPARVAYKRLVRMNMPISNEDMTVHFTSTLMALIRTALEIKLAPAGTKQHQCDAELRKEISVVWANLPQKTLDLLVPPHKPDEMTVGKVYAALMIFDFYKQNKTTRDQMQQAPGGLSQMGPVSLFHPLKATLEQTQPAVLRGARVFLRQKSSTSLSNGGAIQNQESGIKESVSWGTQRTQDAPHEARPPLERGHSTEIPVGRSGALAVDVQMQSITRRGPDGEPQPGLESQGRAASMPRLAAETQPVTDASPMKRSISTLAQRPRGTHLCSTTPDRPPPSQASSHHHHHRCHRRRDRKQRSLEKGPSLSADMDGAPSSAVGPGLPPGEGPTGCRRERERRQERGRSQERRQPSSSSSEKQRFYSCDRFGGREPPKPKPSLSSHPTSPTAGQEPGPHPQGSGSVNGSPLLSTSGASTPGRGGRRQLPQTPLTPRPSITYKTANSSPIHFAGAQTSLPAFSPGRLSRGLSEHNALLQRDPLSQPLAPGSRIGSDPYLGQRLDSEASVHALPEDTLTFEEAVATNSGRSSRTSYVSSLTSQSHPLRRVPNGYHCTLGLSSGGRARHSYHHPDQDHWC
T1 sequence (P54284 whole entry partner): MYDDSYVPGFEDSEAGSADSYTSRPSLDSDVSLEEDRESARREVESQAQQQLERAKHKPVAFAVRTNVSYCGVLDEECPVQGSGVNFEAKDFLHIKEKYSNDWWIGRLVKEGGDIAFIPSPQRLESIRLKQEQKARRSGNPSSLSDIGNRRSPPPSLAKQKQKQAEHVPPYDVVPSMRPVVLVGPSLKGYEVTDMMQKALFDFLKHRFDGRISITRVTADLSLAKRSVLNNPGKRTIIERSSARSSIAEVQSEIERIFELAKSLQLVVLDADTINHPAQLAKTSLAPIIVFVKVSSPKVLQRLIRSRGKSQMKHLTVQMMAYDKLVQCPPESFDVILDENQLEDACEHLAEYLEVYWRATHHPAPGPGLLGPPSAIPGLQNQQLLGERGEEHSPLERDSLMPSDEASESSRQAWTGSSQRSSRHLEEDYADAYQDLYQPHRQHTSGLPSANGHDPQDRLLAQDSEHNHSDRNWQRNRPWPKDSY
T1 sequence (P54289 25-956 partner limits assumed): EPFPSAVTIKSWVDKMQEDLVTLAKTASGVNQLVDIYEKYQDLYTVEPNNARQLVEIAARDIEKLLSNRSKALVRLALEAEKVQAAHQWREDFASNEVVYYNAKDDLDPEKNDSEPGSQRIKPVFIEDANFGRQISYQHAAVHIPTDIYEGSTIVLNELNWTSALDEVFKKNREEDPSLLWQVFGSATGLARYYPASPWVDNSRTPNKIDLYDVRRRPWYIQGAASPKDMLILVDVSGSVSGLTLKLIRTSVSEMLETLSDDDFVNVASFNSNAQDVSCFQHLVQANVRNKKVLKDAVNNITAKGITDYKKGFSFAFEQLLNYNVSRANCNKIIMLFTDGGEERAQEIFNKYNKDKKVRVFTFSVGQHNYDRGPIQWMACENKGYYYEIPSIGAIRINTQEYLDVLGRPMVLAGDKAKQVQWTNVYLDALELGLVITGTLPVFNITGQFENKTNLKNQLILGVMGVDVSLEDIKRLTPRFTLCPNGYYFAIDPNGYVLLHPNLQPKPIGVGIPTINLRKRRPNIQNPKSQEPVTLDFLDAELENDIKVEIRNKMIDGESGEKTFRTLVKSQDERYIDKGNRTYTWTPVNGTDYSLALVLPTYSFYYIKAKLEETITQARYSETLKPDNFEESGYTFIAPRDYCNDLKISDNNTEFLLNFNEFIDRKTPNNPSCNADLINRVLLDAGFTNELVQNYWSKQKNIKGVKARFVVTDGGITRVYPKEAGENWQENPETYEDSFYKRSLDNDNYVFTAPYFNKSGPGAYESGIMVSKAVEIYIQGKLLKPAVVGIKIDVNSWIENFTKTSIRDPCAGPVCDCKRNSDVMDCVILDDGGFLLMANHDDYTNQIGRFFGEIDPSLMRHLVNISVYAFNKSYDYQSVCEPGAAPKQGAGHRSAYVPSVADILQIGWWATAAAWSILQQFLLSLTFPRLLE
T1 sequence (P54289 957-1103 partner limits assumed): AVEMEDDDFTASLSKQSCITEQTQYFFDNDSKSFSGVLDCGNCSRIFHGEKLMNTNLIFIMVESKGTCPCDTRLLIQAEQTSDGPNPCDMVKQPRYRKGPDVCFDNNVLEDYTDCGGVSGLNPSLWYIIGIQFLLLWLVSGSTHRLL

With `COc1cc(F)ccc1-n1nc2c(c1-c1ccc(Cl)cc1)CN(S(C)(=O)=O)C2` [Cpd 70, 3-(4-Chlorophenyl)-2-(4-fluoro-2-methoxyphenyl)-5-(methylsulfonyl)-2,4,5,6-tetrahydropyrrolo[3,4-c]pyrazole] the inhibition at 0.33 µM was 74% and the IC50 was 0.075 µM.

`COc1ccccc1-n1nc2c(c1-c1ccc(Cl)cc1)CN(C(=O)CNC(=O)OC(C)(C)C)C2` [Cpd 29, tert-Butyl{2-[3-(4-chlorophenyl)-2-(2-methoxyphenyl)-2,6-dihydropyrrolo[3,4-c]pyrazol-5(4H)-yl]-2-oxoethyl}carbamate] showed an IC50 of 0.18 µM.

For `CC(C)Oc1ccccc1-n1nc2c(c1-c1ccc(Cl)cc1)CN(S(=O)(=O)N(C)C)C2` [Cpd 63, 3-(4-Chlorophenyl)-N,N-dimethyl-2-[2-(1-methylethoxy)phenyl]-2,6-dihydropyrrolo[3,4-c]pyrazole-5(4H)-sulfonamide], the IC50 was 0.003 µM.

For `CCc1ccccc1-n1nc2c(c1-c1ccc(Cl)cc1)CN(C(=O)c1ccccn1)C2` [Cpd 7, 3-(4-Chlorophenyl)-2-(2-ethylphenyl)-5-(pyridin-2-ylcarbonyl)-2,4,5,6-tetrahydropyrrolo[3,4-c]pyrazole], the inhibition at 1 µM was 58%.

Work on `N#Cc1cccc(N2Cc3nn(-c4ccccc4OC(F)(F)F)c(-c4ccc(Cl)cc4)c3C2)c1` [Cpd 23, 3-[3-(4-Chlorophenyl)-2-[2-(trifluoromethoxy)phenyl]-2,6-dihydropyrrolo[3,4-c]pyrazol-5(4H)-yl]benzonitrile] yielded an inhibition at 1 µM of 52%.

Work on `COc1ccccc1-n1nc2c(c1-c1ccc(Cl)cc1)CN(S(=O)(=O)CCN1C(=O)c3ccccc3C1=O)C2` [Cpd 38, 2-(2-{[3-(4-Chlorophenyl)-2-(2-methoxyphenyl)-2,6-dihydropyrrolo[3,4-c]pyrazol-5(4H)-yl]sulfonyl}ethyl)-1H-isoindole-1,3(2H)-dione] yielded an IC50 of 0.053 µM.

`CCc1ccccc1-n1nc2c(c1-c1ccc(Cl)cc1)CN(C(=O)CNS(C)(=O)=O)C2` [Cpd 12, N-{2-[3-(4-Chlorophenyl)-2-(2-ethylphenyl)-2,6-dihydropyrrolo[3,4-c]pyrazol-5(4H)-yl]-2-oxoethyl}methanesulfonamide] was tested, and the IC50 was 0.52 µM.

In the case of `COC(=O)c1ccc(N2Cc3nn(-c4ccccc4OC(F)(F)F)c(-c4ccc(Cl)cc4)c3C2)cc1` [Cpd 24, Methyl 4-[3-(4-chlorophenyl)-2-[2-(trifluoromethoxy)phenyl]-2,6-dihydropyrrolo[3,4-c]pyrazol-5(4H)-yl]benzoate], the inhibition at 1 µM is reported as 64%.

`CN(C)S(=O)(=O)N1Cc2nn(-c3ccccc3OC(C)(C)C)c(-c3ccc(Cl)cc3)c2C1` [Cpd 91, 2-(2-tert-Butoxyphenyl)-3-(4-chlorophenyl)-N,N-dimethyl-2,6-dihydropyrrolo[3,4-c]pyrazole-5(4H)-sulfonamide] was tested, and the inhibition at 0.33 µM was 87% and the IC50 was 0.063 µM.

`COc1ccccc1-n1nc2c(c1-c1ccc(OC(C)C)nc1)CN(S(=O)(=O)C(C)C)C2` [Cpd 96, 2-(2-Methoxyphenyl)-3-[6-(1-methylethoxy)pyridin-3-yl]-5-[(1-methylethyl)sulfonyl]-2,4,5,6-tetrahydropyrrolo[3,4-c]pyrazole] showed an inhibition at 0.33 µM of 79% and an IC50 of 0.13 µM.

`CCc1ccccc1-n1nc2c(c1-c1ccc(Cl)cc1)CN(C(=O)c1ccco1)C2` [Cpd 8, 3-(4-Chlorophenyl)-2-(2-ethylphenyl)-5-(furan-2-ylcarbonyl)-2,4,5,6-tetrahydropyrrolo[3,4-c]pyrazole] was tested, and the IC50 was 0.6 µM.

Work on `COc1ccc(-n2nc3c(c2-c2ccc(Cl)cc2)CN(S(=O)(=O)N2CCC(C)CC2)C3)c(F)c1` [Cpd 80, 3-(4-Chlorophenyl)-2-(2-fluoro-4-methoxyphenyl)-5-[(4-methylpiperidin-1-yl)sulfonyl]-2,4,5,6-tetrahydropyrrolo[3,4-c]pyrazole] yielded an inhibition at 0.33 µM of 62% and an IC50 of 0.14 µM.

Work on `CCc1ccccc1-n1nc2c(c1-c1ccc(Cl)cc1)CN(C(=O)c1cc(C)on1)C2` [Cpd 9, 3-(4-Chlorophenyl)-2-(2-ethylphenyl)-5-[(5-methylisoxazol-3-yl)carbonyl]-2,4,5,6-tetrahydropyrrolo[3,4-c]pyrazole] yielded an inhibition at 1 µM of 63%.

In the case of `CC(C)S(=O)(=O)N1Cc2nn(-c3ccccc3C(F)(F)F)c(-c3ccc(Cl)cc3)c2C1` [Cpd 16, 3-(4-Chlorophenyl)-5-[(1-methylethyl)sulfonyl]-2-[2-(trifluoromethyl)phenyl]-2,4,5,6-tetrahydropyrrolo[3,4-c]pyrazole], the IC50 is reported as 0.16 µM.

`COc1ccc(-n2nc3c(c2-c2ccc(Cl)cc2)CN(S(=O)(=O)C2CCCCC2)C3)c(C)c1` [Cpd 68, 3-(4-Chlorophenyl)-5-(cyclohexylsulfonyl)-2-(4-methoxy-2-methylphenyl)-2,4,5,6-tetrahydropyrrolo[3,4-c]pyrazole] was tested, and the inhibition at 0.33 µM was 71% and the IC50 was 0.13 µM.

Work on `COc1ccc(-n2nc3c(c2-c2ccc(Cl)cc2)CN(S(=O)(=O)C(C)C)C3)c(F)c1` [Cpd 79, 3-(4-Chlorophenyl)-2-(2-fluoro-4-methoxyphenyl)-5-[(1-methylethyl)sulfonyl]-2,4,5,6-tetrahydropyrrolo[3,4-c]pyrazole] yielded an inhibition at 0.33 µM of 61% and an IC50 of 0.18 µM.

`COc1ccccc1-n1nc2c(c1-c1ccc(Cl)cc1)CN(C(=O)N(C)C)C2` [Cpd 34, 3-(4-Chlorophenyl)-2-(2-methoxyphenyl)-N,N-dimethyl-2,6-dihydropyrrolo[3,4-c]pyrazole-5(4H)-carboxamide] showed an IC50 of 0.17 µM.

`O=S1(=O)CCC(S(=O)(=O)N2Cc3nn(-c4ccccc4OC(F)(F)F)c(-c4ccc(Cl)cc4)c3C2)C1` (stereo not shown) [Cpd 48, 3-(4-Chlorophenyl)-5-[(1,1-dioxidotetrahydrothiophen-3-yl)sulfonyl]-2-[2-(trifluoromethoxy)phenyl]-2,4,5,6-tetrahydropyrrolo[3,4-c]pyrazole] showed an IC50 of 0.077 µM.

`CS(=O)(=O)N1Cc2nn(-c3ccccc3C(F)(F)F)c(-c3ccc(Cl)cc3)c2C1` [Cpd 15, 3-(4-Chlorophenyl)-5-(methylsulfonyl)-2-[2-(trifluoromethyl)phenyl]-2,4,5,6-tetrahydropyrrolo[3,4-c]pyrazole] was tested, and the IC50 was 0.28 µM.

For `Cc1ccc(S(=O)(=O)N2Cc3nn(-c4ccccc4C(F)(F)F)c(-c4ccc(Cl)cc4)c3C2)cc1` [Cpd 17, 3-(4-Chlorophenyl)-5-[(4-methylphenyl)sulfonyl]-2-[2-(trifluoromethyl)phenyl]-2,4,5,6-tetrahydropyrrolo[3,4-c]pyrazole], the IC50 was 0.3 µM.

`COc1ccc(-n2nc3c(c2-c2ccc(Cl)cc2)CN(S(C)(=O)=O)C3)c(F)c1` [Cpd 78, 3-(4-Chlorophenyl)-2-(2-fluoro-4-methoxyphenyl)-5-(methylsulfonyl)-2,4,5,6-tetrahydropyrrolo[3,4-c]pyrazole] showed an inhibition at 0.33 µM of 62% and an IC50 of 0.2 µM.

For `CCc1ccccc1-n1nc2c(c1-c1ccc(Cl)cc1)CN(C(=O)c1cccnc1)C2` [Cpd 4, 3-(4-Chlorophenyl)-2-(2-ethylphenyl)-5-(pyridin-3-ylcarbonyl)-2,4,5,6-tetrahydropyrrolo[3,4-c]pyrazole], the IC50 was 0.2 µM.

Work on `CC(C)(C)OC(=O)NCC(=O)N1Cc2nn(-c3ccccc3C(F)(F)F)c(-c3ccc(Cl)cc3)c2C1` [Cpd 18, tert-Butyl{2-[3-(4-chlorophenyl)-2-[2-(trifluoromethyl)phenyl]-2,6-dihydropyrrolo[3,4-c]pyrazol-5(4H)-yl]-2-oxoethyl}carbamate] yielded an IC50 of 0.48 µM.

`COc1cc(F)ccc1-n1nc2c(c1-c1ccc(Cl)cc1)CN(S(=O)(=O)C1CCCCC1)C2` [Cpd 72, 3-(4-Chlorophenyl)-5-(cyclohexylsulfonyl)-2-(4-fluoro-2-methoxyphenyl)-2,4,5,6-tetrahydropyrrolo[3,4-c]pyrazole] gave an inhibition at 0.33 µM of 82% and an IC50 of 0.095 µM.

`COc1cc(C)ccc1-n1nc2c(c1-c1ccc(Cl)cc1)CN(S(=O)(=O)N1CCC(C)CC1)C2` [Cpd 77, 3-(4-Chlorophenyl)-2-(2-methoxy-4-methylphenyl)-5-[(4-methylpiperidin-1-yl)sulfonyl]-2,4,5,6-tetrahydropyrrolo[3,4-c]pyrazole] was tested, and the inhibition at 0.33 µM was 82% and the IC50 was 0.056 µM.

In the case of `CCOc1ccccc1-n1nc2c(c1-c1ccc(Cl)cc1)CN(S(=O)(=O)Cc1ccccc1)C2` [Cpd 53, 5-(Benzylsulfonyl)-3-(4-chlorophenyl)-2-(2-ethoxyphenyl)-2,4,5,6-tetrahydropyrrolo[3,4-c]pyrazole], the IC50 is reported as 0.007 µM.

`COc1cc(C)ccc1-n1nc2c(c1-c1ccc(Cl)cc1)CN(S(C)(=O)=O)C2` [Cpd 74, 3-(4-Chlorophenyl)-2-(2-methoxy-4-methylphenyl)-5-(methylsulfonyl)-2,4,5,6-tetrahydropyrrolo[3,4-c]pyrazole] showed an inhibition at 0.33 µM of 82% and an IC50 of 0.047 µM.
